Assay results: ChEMBL document CHEMBL1201862, “PubChem BioAssay data set” (2004)
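Cells were grown in 96-well plates and exposed to each compound for 48 hours at five concentrations; endpoints were interpolated linearly between bracketing concentrations, or set to the highest concentration if not reached. GI50 marks 50% less growth.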 Calls of active or inactive are those of the source. Rule as the data show it: active = GI50 up to about 1.1 µM and inactive = higher.

Assays:
Assay in all cases: growth of human tumour cells (NCI), 48 h
[1] = test system: SK-OV-3
[2] = test system: SF-268
[3] = test system: NCI-H23
[4] = test system: SW-620
[5] = test system: RXF 393
[6] = test system: SF-295
[7] = test system: UACC-257
[8] = test system: U-251
[9] = test system: MDA-MB-435
[10] = test system: HT-29
[11] = test system: CAKI-1
[12] = test system: MOLT-4
[13] = test system: K562
[14] = test system: OVCAR-8
[15] = test system: LOX IMVI
[16] = test system: SNB-19
[17] = test system: NCI/ADR-RES
[18] = test system: NCI-H226
[19] = test system: UO-31

Structure (SMILES) | GI50 [1] | GI50 [2] | GI50 [3] | GI50 [4] | GI50 [5] | GI50 [6] | GI50 [7] | GI50 [8] | GI50 [9] | GI50 [10] | GI50 [11] | GI50 [12] | GI50 [13] | GI50 [14] | GI50 [15] | GI50 [16] | GI50 [17] | GI50 [18] | GI50 [19]
CSc1ccsc1-c1sc(-c2cc(SC)c(-c3sc(-c4cc(SC)c(-c5sccc5SC)s4)cc3SC)s2)cc1SC | > 100 µM (inactive) | > 100 µM (inactive) | 64.9 µM (inactive) | 21.5 µM (inactive) | > 100 µM (inactive) | > 100 µM (inactive) | > 100 µM (inactive) | 67.3 µM (inactive) | 20.9 µM (inactive) | 93.5 µM (inactive) | 17.2 µM (inactive) | 18 µM (inactive) | 46.8 µM (inactive) | > 100 µM (inactive) | > 100 µM (inactive) | > 100 µM (inactive) | 45.7 µM (inactive) | – | –
COC(=O)N/N=C(\C)CC(=O)Nc1ccc(Cl)cc1 | > 100 µM (inactive) | > 100 µM (inactive) | > 100 µM (inactive) | > 100 µM (inactive) | 42.6 µM (inactive) | > 100 µM (inactive) | > 100 µM (inactive) | > 100 µM (inactive) | – | > 100 µM (inactive) | – | > 100 µM (inactive) | > 100 µM (inactive) | > 100 µM (inactive) | > 100 µM (inactive) | – | – | > 100 µM (inactive) | 67.3 µM (inactive)
O=c1[nH]n(CCc2ccccc2CCl)c2ccc([N+](=O)[O-])cc12 | – | > 100 µM (inactive) | 89.9 µM (inactive) | > 100 µM (inactive) | 92.3 µM (inactive) | 52.5 µM (inactive) | 70.6 µM (inactive) | 81.8 µM (inactive) | 63.5 µM (inactive) | 88.1 µM (inactive) | 91 µM (inactive) | 72.8 µM (inactive) | 38.9 µM (inactive) | 71.3 µM (inactive) | 41.5 µM (inactive) | > 100 µM (inactive) | 31.8 µM (inactive) | 95.9 µM (inactive) | 25 µM (inactive)
COc1cccc(OC)c1/C=N\N1C(=O)c2ccccc2C1=O | – | 37.8 µM (inactive) | 38.5 µM (inactive) | 41.6 µM (inactive) | 26.7 µM (inactive) | 92.3 µM (inactive) | > 100 µM (inactive) | – | – | 35.5 µM (inactive) | 38.5 µM (inactive) | 40.6 µM (inactive) | 39.1 µM (inactive) | 29.6 µM (inactive) | 58.5 µM (inactive) | > 100 µM (inactive) | – | > 100 µM (inactive) | 55.2 µM (inactive)
O=C1NCCS(=O)(=O)N[C@@H](CC2=CC=CCC2)C(=O)N2CCCC12 (some centres not stated) | > 100 µM (inactive) | > 100 µM (inactive) | > 100 µM (inactive) | > 100 µM (inactive) | > 100 µM (inactive) | > 100 µM (inactive) | > 100 µM (inactive) | > 100 µM (inactive) | – | > 100 µM (inactive) | – | > 100 µM (inactive) | > 100 µM (inactive) | > 100 µM (inactive) | > 100 µM (inactive) | > 100 µM (inactive) | – | > 100 µM (inactive) | > 100 µM (inactive)
CCn1c2ccccc2c(=O)c2c(OC)ccc(OC)c21 | 64.9 µM (inactive) | 83.9 µM (inactive) | > 83.8 µM (inactive) | 32.8 µM (inactive) | 32.5 µM (inactive) | 53.8 µM (inactive) | 41.4 µM (inactive) | 64.6 µM (inactive) | – | 64.3 µM (inactive) | 22.9 µM (inactive) | 42.5 µM (inactive) | 37.2 µM (inactive) | 56.8 µM (inactive) | 36.1 µM (inactive) | 49.9 µM (inactive) | – | 32.2 µM (inactive) | 25.4 µM (inactive)
COc1ccc(/C(=N/NC(N)=O)C(c2ccc(OC)cc2)C2C(=O)Oc3ccccc32)cc1 (configuration not stated) | > 100 µM (inactive) | > 100 µM (inactive) | > 100 µM (inactive) | > 100 µM (inactive) | 86.1 µM (inactive) | > 100 µM (inactive) | > 100 µM (inactive) | > 100 µM (inactive) | – | > 100 µM (inactive) | > 100 µM (inactive) | > 100 µM (inactive) | > 100 µM (inactive) | > 100 µM (inactive) | > 100 µM (inactive) | > 100 µM (inactive) | – | > 100 µM (inactive) | 35 µM (inactive)
CCCCOP1(=O)C=C(C)C(=C(Cl)Cl)C(C)=C1 (configuration not stated) | 19.5 µM (inactive) | 5.56 µM (inactive) | 12.4 µM (inactive) | 3.98 µM (inactive) | 8.51 µM (inactive) | 6.61 µM (inactive) | 5.43 µM (inactive) | 6.97 µM (inactive) | – | 4.33 µM (inactive) | 5.83 µM (inactive) | 3.02 µM (inactive) | 3.85 µM (inactive) | 17.9 µM (inactive) | 5.21 µM (inactive) | 25.8 µM (inactive) | – | 3.38 µM (inactive) | 19.5 µM (inactive)
N#CC1=C(c2ccccc2)NN(Cc2ccccc2)C(c2ccc(Cl)cc2)CC1=O (configuration not stated) | > 10 µM (inactive) | 29.3 µM (inactive) | 20.1 µM (inactive) | 20.2 µM (inactive) | 22.3 µM (inactive) | 27.5 µM (inactive) | 37.8 µM (inactive) | 17.3 µM (inactive) | – | 17.3 µM (inactive) | 30.1 µM (inactive) | 4.91 µM (inactive) | – | – | 18 µM (inactive) | 22.5 µM (inactive) | – | 57.8 µM (inactive) | –
COC(=O)/C(=C/CC(N=C(c1ccccc1)c1ccccc1)C(=O)OC)N=C(c1ccccc1)c1ccccc1 (configuration not stated) | 39 µM (inactive) | > 100 µM (inactive) | > 100 µM (inactive) | > 100 µM (inactive) | 26.1 µM (inactive) | > 100 µM (inactive) | > 100 µM (inactive) | > 100 µM (inactive) | – | > 100 µM (inactive) | > 100 µM (inactive) | > 100 µM (inactive) | > 100 µM (inactive) | > 100 µM (inactive) | > 100 µM (inactive) | > 100 µM (inactive) | – | – | 45.9 µM (inactive)
Cc1ccc2[nH]c3c(C)c4c(c(C)c3c2c1)CN(C)C=C4 | 0.33 µM (active) | 0.353 µM (active) | 0.735 µM (active) | 0.281 µM (active) | 1.53 µM (inactive) | 0.423 µM (active) | 2.53 µM (inactive) | 0.271 µM (active) | – | 2.46 µM (inactive) | – | 1.91 µM (inactive) | 1.42 µM (inactive) | 0.444 µM (active) | 3.93 µM (inactive) | 0.52 µM (active) | – | 0.353 µM (active) | 3.52 µM (inactive)
CC(=O)Nc1ccc(-c2nnc(SCC(=O)Nc3ccc(Cl)cc3Cl)o2)cc1 | 64.3 µM (inactive) | 44.7 µM (inactive) | 26.2 µM (inactive) | 32.4 µM (inactive) | 33.7 µM (inactive) | 57.8 µM (inactive) | 44.2 µM (inactive) | 18 µM (inactive) | – | 31.8 µM (inactive) | > 100 µM (inactive) | 40.8 µM (inactive) | 28.8 µM (inactive) | 38.2 µM (inactive) | 27.8 µM (inactive) | 22.6 µM (inactive) | – | 29.2 µM (inactive) | 94.8 µM (inactive)
OC12CC/C(=N/OCc3ccccc3)CC1c1ccccc12 (configuration not stated) | > 100 µM (inactive) | > 100 µM (inactive) | > 100 µM (inactive) | – | > 100 µM (inactive) | > 100 µM (inactive) | > 100 µM (inactive) | > 100 µM (inactive) | – | > 100 µM (inactive) | > 100 µM (inactive) | > 100 µM (inactive) | > 100 µM (inactive) | > 100 µM (inactive) | > 100 µM (inactive) | > 100 µM (inactive) | – | > 100 µM (inactive) | > 100 µM (inactive)
CC1(C)CCC[C@@]2(C)C1CC[C@H]1CC(O)C3(C)CCC12C3 (some centres not stated) | 18.3 µM (inactive) | 19.2 µM (inactive) | 18.7 µM (inactive) | 17.1 µM (inactive) | 13.3 µM (inactive) | – | 18.2 µM (inactive) | 18.2 µM (inactive) | – | 18.2 µM (inactive) | 16.6 µM (inactive) | 22 µM (inactive) | 32.1 µM (inactive) | 18.5 µM (inactive) | 15.4 µM (inactive) | 18 µM (inactive) | – | 20 µM (inactive) | 17.5 µM (inactive)
O=C1C=C(Nc2ccccc2C(=O)CC(=O)C(=O)Nc2cccc([N+](=O)[O-])c2)c2ccccc2C1=O | > 100 µM (inactive) | 22.2 µM (inactive) | 26.9 µM (inactive) | 25.6 µM (inactive) | 46.3 µM (inactive) | – | 27.2 µM (inactive) | 32.4 µM (inactive) | – | > 100 µM (inactive) | > 100 µM (inactive) | 4.28 µM (inactive) | 17.7 µM (inactive) | 28 µM (inactive) | 4.82 µM (inactive) | 23.3 µM (inactive) | – | 59.3 µM (inactive) | 34.9 µM (inactive)
O=c1[nH]nc2c3n[nH]c(=O)n3c3ccccc3n12 | > 100 µM (inactive) | > 100 µM (inactive) | > 100 µM (inactive) | > 100 µM (inactive) | > 100 µM (inactive) | > 100 µM (inactive) | > 100 µM (inactive) | > 100 µM (inactive) | – | > 100 µM (inactive) | > 100 µM (inactive) | > 100 µM (inactive) | > 100 µM (inactive) | > 100 µM (inactive) | > 100 µM (inactive) | > 100 µM (inactive) | – | 50.1 µM (inactive) | 49.3 µM (inactive)
C[C@]12CC(c3ccccc3O1)C(C(=O)Nc1nc(C34CC5CC(CC(C5)C3)C4)cs1)C(=O)N2 (some centres not stated) | > 100 µM (inactive) | > 100 µM (inactive) | > 100 µM (inactive) | > 100 µM (inactive) | > 100 µM (inactive) | – | > 100 µM (inactive) | > 100 µM (inactive) | > 100 µM (inactive) | > 100 µM (inactive) | > 100 µM (inactive) | > 100 µM (inactive) | > 100 µM (inactive) | > 100 µM (inactive) | > 100 µM (inactive) | > 100 µM (inactive) | > 100 µM (inactive) | > 100 µM (inactive) | –
